Measurements from publication PMC9212491 (Antiviral Research, 2022).

Experiments:
[1] = system: rSARS-CoV-2/Nluc; test: microbe, parasite or virus in culture; format: cell-based, SARS-CoV-2; settings: for EC50: Severe acute respiratory syndrome coronavirus 2, Calu-3, read-out: EC50, SARS-CoV-2 infection, Calu-3 cells
[2] = system: JAK2; settings: ref Stebbing et al.,2021; Klaeger et al.,2017; cited from earlier work
[3] = system: TYK2; settings: ref Stebbing et al.,2021; Klaeger et al.,2017; cited from earlier work
[4] = system: STK10; settings: ref Asquith et al., 2019a, 2019b; Davis et al.,2011; cited from earlier work
[5] = system: EGFR; settings: ref Asquith et al., 2019a, 2019b; Davis et al.,2011; cited from earlier work
[6] = system: SLK; settings: ref Asquith et al., 2019a, 2019b; Davis et al.,2011; cited from earlier work
[7] = system: YSK4; settings: ref Asquith et al., 2019a, 2019b; Davis et al.,2011; cited from earlier work
[8] = alamarBlue viability, infected Vero E6 cells; format: cell-based; settings: African green monkey, 24 hpi
[9] = biological target: AAK1 (Homo sapiens, UniProt Q2M2I8); test: In vitro binding, dissociation constant
Chain of AAK1 (Q2M2I8 whole entry): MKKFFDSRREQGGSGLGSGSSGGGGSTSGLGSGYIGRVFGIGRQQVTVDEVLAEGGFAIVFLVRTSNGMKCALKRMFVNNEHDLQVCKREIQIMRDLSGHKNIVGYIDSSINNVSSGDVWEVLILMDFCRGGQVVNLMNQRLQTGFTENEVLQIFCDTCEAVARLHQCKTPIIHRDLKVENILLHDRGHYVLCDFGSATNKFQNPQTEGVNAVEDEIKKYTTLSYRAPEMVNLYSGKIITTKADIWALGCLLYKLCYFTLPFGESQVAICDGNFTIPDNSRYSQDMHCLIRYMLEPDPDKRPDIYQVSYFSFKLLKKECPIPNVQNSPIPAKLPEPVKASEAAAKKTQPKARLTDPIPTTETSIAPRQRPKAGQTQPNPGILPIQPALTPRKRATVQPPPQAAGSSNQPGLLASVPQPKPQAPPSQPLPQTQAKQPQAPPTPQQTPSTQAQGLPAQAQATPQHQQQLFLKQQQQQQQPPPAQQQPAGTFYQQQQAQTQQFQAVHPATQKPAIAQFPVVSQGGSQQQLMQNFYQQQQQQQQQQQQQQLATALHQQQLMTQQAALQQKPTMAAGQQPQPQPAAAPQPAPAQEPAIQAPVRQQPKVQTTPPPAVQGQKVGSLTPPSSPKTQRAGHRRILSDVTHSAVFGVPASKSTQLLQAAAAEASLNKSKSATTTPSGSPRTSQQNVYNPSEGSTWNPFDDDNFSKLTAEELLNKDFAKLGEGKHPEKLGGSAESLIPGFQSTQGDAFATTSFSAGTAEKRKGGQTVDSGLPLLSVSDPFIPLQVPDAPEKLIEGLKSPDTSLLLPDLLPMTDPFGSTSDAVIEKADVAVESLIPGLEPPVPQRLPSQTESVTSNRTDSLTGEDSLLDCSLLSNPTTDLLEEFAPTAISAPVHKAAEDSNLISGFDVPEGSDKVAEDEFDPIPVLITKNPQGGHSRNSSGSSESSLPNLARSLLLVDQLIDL

[10] = biological target: BIKE (Homo sapiens, UniProt Q9NSY1); test: In vitro binding, dissociation constant
Chain of BIKE (Q9NSY1 whole entry): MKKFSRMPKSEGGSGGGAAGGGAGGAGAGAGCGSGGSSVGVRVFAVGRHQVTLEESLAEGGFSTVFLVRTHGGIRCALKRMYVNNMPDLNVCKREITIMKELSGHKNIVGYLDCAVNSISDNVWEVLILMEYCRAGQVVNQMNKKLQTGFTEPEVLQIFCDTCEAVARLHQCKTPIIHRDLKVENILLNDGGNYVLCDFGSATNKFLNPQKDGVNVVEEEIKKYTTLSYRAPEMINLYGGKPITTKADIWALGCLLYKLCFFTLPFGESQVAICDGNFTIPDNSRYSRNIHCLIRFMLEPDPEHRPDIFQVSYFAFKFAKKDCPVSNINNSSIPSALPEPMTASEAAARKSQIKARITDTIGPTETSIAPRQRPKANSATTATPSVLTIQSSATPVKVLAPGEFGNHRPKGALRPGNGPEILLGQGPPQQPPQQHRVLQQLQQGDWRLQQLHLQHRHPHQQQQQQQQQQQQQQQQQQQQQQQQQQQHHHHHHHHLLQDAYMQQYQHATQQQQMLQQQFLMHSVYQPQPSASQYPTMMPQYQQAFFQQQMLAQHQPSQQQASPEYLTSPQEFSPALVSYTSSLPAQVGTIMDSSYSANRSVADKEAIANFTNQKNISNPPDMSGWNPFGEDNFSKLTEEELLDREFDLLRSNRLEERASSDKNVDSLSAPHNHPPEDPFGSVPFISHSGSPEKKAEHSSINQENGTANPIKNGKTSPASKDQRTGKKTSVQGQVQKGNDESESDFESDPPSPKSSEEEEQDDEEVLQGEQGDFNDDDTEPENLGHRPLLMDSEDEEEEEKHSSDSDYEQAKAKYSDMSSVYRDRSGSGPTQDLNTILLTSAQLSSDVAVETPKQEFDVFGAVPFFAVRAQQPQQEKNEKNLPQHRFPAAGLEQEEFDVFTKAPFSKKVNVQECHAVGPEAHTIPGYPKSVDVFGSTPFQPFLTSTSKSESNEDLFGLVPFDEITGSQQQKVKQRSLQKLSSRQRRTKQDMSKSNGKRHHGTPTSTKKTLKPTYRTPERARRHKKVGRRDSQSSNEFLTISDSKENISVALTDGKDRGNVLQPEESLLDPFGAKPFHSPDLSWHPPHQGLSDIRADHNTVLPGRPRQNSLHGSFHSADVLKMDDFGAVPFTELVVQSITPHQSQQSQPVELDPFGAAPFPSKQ

[11] = alamarBlue viability, infected Calu-3 cells; format: cell-based; settings: human
[12] = system: ADCK3; settings: ref Asquith et al., 2019a, 2019b; cited from earlier work
[13] = system: NLK; settings: ref Asquith et al., 2019a, 2019b; cited from earlier work
[14] = system: RIPK2; settings: ref Asquith et al., 2019a, 2019b; cited from earlier work
[15] = system: PDGFRβ; settings: ref Davis et al.,2011; cited from earlier work

For `CCS(=O)(=O)N1CC(CC#N)(n2cc(-c3ncnc4[nH]ccc34)cn2)C1` [Baricitinib, baricitinib], the “antiviral activity in Calu-3 cells” value [1] is listed as “largely no antiviral activity”, the “JAK2 (Other targets, measure not stated)” value [2] is listed as 5.7 nM and the “TYK2 (Other targets, measure not stated)” value [3] is listed as 53 nM.

In the case of `C#Cc1cccc(Nc2ncnc3cc(OCCOC)c(OCCOC)cc23)c1` [Erlotinib, erlotinib], the “STK10 (Other targets, measure not stated)” value [4] is given as 19 nM, the EC50 [1] is given as over 20 µM and the “ErbB1 (Other targets, measure not stated)” value [5] is given as 0.7 nM. For the same compound, the “SLK (Other targets, measure not stated)” value [6] was 26 nM and the “YSK4 (Other targets, measure not stated)” value [7] was 25 nM.

In the case of `C=CC(=O)Nc1cccc(-c2snc3cc(-c4ccc(N)c(OC)c4)cnc23)c1` [RMC-242, N-(3-(6-(4-amino-3-methoxyphenyl)isothiazolo [4,3-b]pyridin-3-yl)phenyl) acrylamide], the EC50 [1] is reported as 1.6 µM, the CC50 at 24 h post infection [8] is reported as 16 µM and the Kd [9] is reported as 4.1 µM. The Kd [10] was over 15 µM and the CC50 at 24 h post infection [11] was over 20 µM.

In the case of `COc1cc(Nc2ccnc3ccc(Br)cc23)cc(OC)c1OC` [SGC-GAK-1], the “ADCK3 (Other targets, measure not stated)” value [12] is listed as 190 nM, the EC50 [1] is listed as 2.3 µM and the CC50 at 24 h post infection [8] is listed as over 20 µM. The “NLK (Other targets, measure not stated)” value [13] was 520 nM, the “RIPK2 (Other targets, measure not stated)” value [14] was 110 nM and the CC50 at 24 h post infection [11] was over 20 µM.

For `CCN(CC)CCNC(=O)c1c(C)[nH]c(/C=C2\C(=O)Nc3ccc(F)cc32)c1C` [Sunitinib, sunitinib], the EC50 [1] is given as 2.9 µM, the CC50 at 24 h post infection [8] is given as 12.2 µM and the “PDGFRβ (Other targets, measure not stated)” value [15] is given as 2 nM. The CC50 at 24 h post infection [11] was over 20 µM.
